Measured values published in US6525017B1, “Using glutathiane to protect neurons from injury” (The Children's Medical Center Corporation, priority 1989, dated 2003).

How the values were obtained:
NMDA receptor [1] = assay: NMDA-induced responses recorded in intact chick retina (eyecup, optic nerve DC potential); format: cell-based
Procedure: Eyecups were obtained from 2-to 5-day-old chicks and continuously superfused at 20-25° C. at a rate of 8 ml/min with Tyrodes solution (130 mM NaCl, 3 mM KCl, 17 mM dextrose, 20 mM NaHCO3, 0.01% w/v phenol red; bubbled with a gas mixture of 95% O2 and 5% CO2) containing 5 mM MgCl2 to reduce synaptic activity. […] Traces were triggered by the opening of two solenoid valves that shunted approximately 200 μl of agonist (1, 1-dimethyl-4-phenyl-piperazinium iodide, DMPP or NMDA) into the perfusion line, Agonists reached the preparation approximately 7s later. […] Some experiments were performed in the presence of 10 μg/ml catalase and 1 μg/ml superoxide dismutase. Antagonists, reducing agents, or oxidizing agents were introduced directly via the perfusate.

non-NMDA receptors = assay: Whole-cell currents elicited by non-NMDA agonists in rat retinal ganglion cells; format: cell-based; details: 125 μM kainate, 60 μM AMPA, 30 μM quisqualate
Procedure: (§1) The third central neuronal preparation in which the effects of oxidation and reduction on NMDA responses were tested was the isolated rat retinal ganglion cell. Postnatal retinal ganglion cells were identified and cultured as described in Lipton et al., supra. Physiological solutions and experimental protocol were the same as described for cortical neurons (Example 2), except that TTX was excluded from the extracellular fluid, since whole-cell recordings were performed on neurons that were solitary and had no apparent connections to other cells and no spontaneous action potentials.
In the retinal ganglion cells, we further tested the effects of DTT and DTNB on responses elicited by glutamate analogs acting at non-NMDA receptors to confirm our previous observations in the chick retina, i.e., a lack of effect of reduction and oxidation on responses induced by agonists acting at non-NMDA receptors.

retinal ganglion cells = assay: Survival of retinal ganglion cells exposed to glutamate (NMDA neurotoxicity); format: cell-based, rat
Procedure: To investigate the influence of redox modulation on NMDA neurotoxicity, survival of an identified central neuron, the retinal ganglion cell, was monitored for 12-24 hr after a brief (5-10 min.) exposure to DTT. To determine the degree of killing specifically related to activation of the NMDA receptor, APV at 200 μM was added to sibling cultures. APV-preventable, glutamate-induced death was increased 70±9% with DTT treatment.
Retinal ganglion cell neurons were labeled in situ, dissociated from the retina, and cultured as follows. Retinal ganglion cells from 7- to 12-day-old Long-Evans rats were labeled and enzymatically dissociated as described by Leifer et al., Science 224: 303, 1984. Following rinse of the dissociated retinal cells with a physiological saline based on Hanks' salts (composition in mM: NaCl, 137; NaHCO3, 1; Na2HPO4, 0.34; KCl, 5,36; KH2PO4, 0.44; CaCl2, 1.25, MgSO4, 0.5; MgCl2, 0.5; N-2-hydroxyethyl-piperazine-N′-2-ethanesulfonic acid (HEPES), 5; dextrose, 22.2; Phenol Red, 0.001% v/v; adjusted to pH 7.2 with 0.3 M NaOH), the cells were mechanically dispersed and aliquoted to treatment vials. These vials contained control saline solution, or saline solution with either 0.5-2 mM DTT, or 0.5 mM DTT in the presence of 1 mM DTNB. Treatment groups with DTNB were readjusted to pH 7.2 with 0.3 M NaOH. Cells were agitated gently over a 5-10 min period. After treatment, 100 μl volumes of the cell suspension were plated onto glass coverslips coated with poly-L-lysine in 35×10 mm tissue-culture dishes containing 2 ml of culture medium. The cell culture medium was based on Eagle's minimum essential medium (MEM), modified so that it was nominally free of magnesium and contained 10 mM CaCl2 to enhance NMDA receptor-mediated neuro-toxicity. The medium was also supplemented with methylcellulose 0.7% w/v, gentamicin 1 μg/ml, dextrose 16 mM, and rat serum 5% v/v. Glutamate levels in the culture medium were monitored by HPLC analysis. Concentrations of glutamate added to the medium of each experiment to induce cell killing averaged 10 μM (day to day variability in neuronal cell death was most probably due to slight variations in the amount of endogenous glutamate or a glutamate-like substance in these cultures). The 100 μl aliquots of cell suspension diluted into the 2 ml of MEM produced a final concentration of 50 μM Mg^2+, as well as levels of DTT and DTNB at 5% of their initial treatment concentrations. The cell cultures were incubated for 12-24 hours at 37° C. in an atmosphere of 5% CO2/95% humidified air. Neuronal survival was then scored by counting retinal ganglion cells displaying uptake and cleavage of fluorescein diacetate to fluorescein, as described by Hahn et al. Proc. Nat. Acad. Sci. USA 85:6556, 1988.
Experiments were conducted in triplicate and repeated on eleven separate days. In order to compare results obtained on different days, data were normalized such that the total number of surviving neurons in a given experiment divided by the number of treatment categories (i.e., 4) equalled 100.
Retinal cells were cultured as described in Example 1. In these experiments transient exposure to the reduced form of DTT (500 μM) occurred in the presence of DTNB (1 mM).

NMDA receptor [2] = assay: Whole-cell NMDA responses in isolated rat retinal ganglion cells; format: cell-based
Procedure: as §1
These cells have well-characterized, albeit small, NMDA responses. Treatment with 2 mM DTT (1-3 min) produced potentiation of the response elicited by 200 μM NMDA and 1 μM glycine (250%±130% of control; range, 220%-320%). […] Glycine (1 μM) potentiation of NMDA (200 μM) responses occurred in both the reduced and the oxidized states. […] The effects of reduction and oxidation could be repeated in alternating fashion in these cells for as long as the recording remained stable.

SMILES: O=C(O)c1cc(SSc2ccc([N+](=O)[O-])c(C(=O)O)c2)ccc1[N+](=O)[O-] [DTNB, 5′-5′-dithiobis-2-nitrobenzoic acid]
- decrease of NMDA response following oxidation (NMDA receptor [1]; 0.1-1.0 mM DTNB applied for 5 min, compared with controls, mean ± spread): 81.6%±24.1%
- decrease of NMDA response following oxidation, range (NMDA receptor [1]; 0.1-1.0 mM DTNB applied for 5 min, range): 43%-100%
- responses elicited by kainate, AMPA or quisqualate after oxidation (non-NMDA receptors; 200 μM DTNB): did not affect
- DTT-enhanced glutamate-induced death with concomitant DTNB (retinal ganglion cells; 0.5 mM DTT in the presence of 1 mM DTNB): totally blocked
- decrement of the native NMDA response (NMDA receptor [2]; 0.1-0.2 mM DTNB, mean ± spread): 49.4%±9.4%
- decrement of the native NMDA response, range (NMDA receptor [2]; 0.1-0.2 mM DTNB, range): 37%-60%

SMILES: O[C@@H](CS)[C@@H](O)CS [DTT, dithothreitol]
- response to NMDA, % of control (potentiation) (NMDA receptor [1]; 100 μM NMDA, DTT 1-2 mM applied for 10-25 min, mean ± spread): 530%±280%
- response to NMDA, % of control, range (NMDA receptor [1]; 100 μM NMDA, DTT 1-2 mM applied for 10-25 min, range): 200%-860%
- currents elicited by kainate, AMPA or quisqualate after reduction (non-NMDA receptors; 1 mM DTT): no substantial effect
- death of retinal ganglion cells exposed to glutamate in the culture medium (retinal ganglion cells; APV 200 μM, DTT transient exposure, 12-24 hr): substantially increased death
- increase of APV-preventable, glutamate-induced death (retinal ganglion cells; brief (5-10 min) exposure to DTT, survival monitored 12-24 hr): 70±9%
- NMDA response, % of control (potentiation) (NMDA receptor [2]; 200 μM NMDA + 1 μM glycine, 2 mM DTT 1-3 min, mean ± spread): 250%±130%
- NMDA response, % of control, range (NMDA receptor [2]; 200 μM NMDA + 1 μM glycine, 2 mM DTT 1-3 min, range): 220%-320%
